≈ marks a conversion by molar mass, not a printed value. Where a SMILES comes first, the peptide text is derived from it. Bridges are numbered along the chain shown (N, C = ends). [ ]: non-standard residue; d: D form. The star is where a group is joined. Pentadecanoyl = CCCCCCCCCCCCCCC(=O)*; Tridecanoyl = CCCCCCCCCCCCC(=O)*; dOrn = NCCC[C@@H](N)C(=O)O
Columns and labels:
[1] = test system: E. coli CVM 40138 (LCR-1); assay type: cell-based, Escherichia coli
Excerpt: (§1) The same MIC assay as in Example 6 was used to determine the antimicrobial susceptibility of Compound A, L-form (FIG. 15), and several variants. One variant was Compound A, D-form, with D-Lysine at position 7. Compound B is a variant in the fatty acid chain, with a fatty acid chain composition of C15H29O, and having D-Lys at position 7. Compound C is a variant in the fatty acid chain with a fatty acid chain composition of C11H21O, and having D-Lys at position 7. Variant D is a sequence variant with Phe at position 6 of the cyclic peptide, and having D-Lys at position 7. All variants were chemically synthesized.

[2] = test system: E. coli CVM 40132 (ctx-m-9); assay type: cell-based, Escherichia coli
Excerpt: as §1

E. coli CVM40146 (vim-1) = assay type: cell-based, Escherichia coli
Excerpt: as §1

[3] = test system: E. coli CVM 40131 (ctx-m-2); assay type: cell-based, Escherichia coli
Excerpt: as §1

E. coli CVM 15104 (shv3) = assay type: cell-based, Escherichia coli
Excerpt: as §1

[4] = test system: E. coli CVM 40141 (imp-1); assay type: cell-based, Escherichia coli
Excerpt: as §1

[5] = test system: E. coli CVM 40130 (oxa-9); assay type: cell-based, Escherichia coli
Excerpt: as §1

[6] = test system: E. coli CVM 40133 (ctx-m-14); assay type: cell-based, Escherichia coli
Excerpt: as §1

[7] = test system: E. coli CVM 35778 (ctx-m-2); assay type: cell-based, Escherichia coli
Excerpt: as §1

E. coli CVM40148 (veb-1) = assay type: cell-based, Escherichia coli
Excerpt: as §1

[8] = test system: E. coli CVM 40143 (act-1); assay type: cell-based, Escherichia coli
Excerpt: as §1

[9] = test system: E. coli CVM 40136 (tem 52b); assay type: cell-based, Escherichia coli
Excerpt: as §1

[10] = test system: E. coli CVM 40139 (fox-1); assay type: cell-based, Escherichia coli
Excerpt: as §1

[11] = test system: E. coli CVM 40127 (oxa-2); assay type: cell-based, Escherichia coli
Excerpt: as §1

[12] = test system: E. coli CVM 40147 (vim-2); assay type: cell-based, Escherichia coli
Excerpt: as §1

[13] = test system: E. coli CVM 40129 (oxa-5); assay type: cell-based, Escherichia coli
Excerpt: as §1

E. coli CVM 15100 (mir1) = assay type: cell-based, Escherichia coli
Excerpt: as §1

[14] = test system: E. coli CVM 40126 (oxa-1); assay type: cell-based, Escherichia coli
Excerpt: as §1

[15] = test system: E. coli CVM 40137 (DHA-1); assay type: cell-based, Escherichia coli
Excerpt: as §1

[16] = test system: E. coli CVM 40128 (oxa-7); assay type: cell-based, Escherichia coli
Excerpt: as §1

[17] = test system: E. coli CVM 40134 (ctx-m-15); assay type: cell-based, Escherichia coli
Excerpt: as §1

E. faecalis BAA-2365 = assay: microbe, parasite or virus in culture; assay type: cell-based, Enterococcus faecalis; conditions: BAA-2365
Excerpt: as §1

E. faecalis ATCC 51575 = assay: microbe, parasite or virus in culture; assay type: cell-based, Enterococcus faecalis; conditions: ATCC 51575
Excerpt: as §1

[18] = test system: Salmonella CVM 40119 (tem 12); assay type: cell-based
Excerpt: as §1

[19] = test system: Serratia marcescens SAMN 04276914; assay type: cell-based; conditions: SAMN 04276914
Excerpt: as §1

[20] = test system: Serratia marcescens SAMN 04276915; assay type: cell-based; conditions: SAMN 04276915
Excerpt: as §1

[21] = test system: Serratia marcescens SAMN04022954; assay type: cell-based; conditions: SAMN04022954
Excerpt: as §1

[22] = test system: Salmonella CVM 1290 (cmy2); assay type: cell-based
Excerpt: as §1

[23] = test system: Salmonella CVM 40118 (oxa-1); assay type: cell-based
Excerpt: as §1

S. aureus 12 = assay: microbe, parasite or virus in culture; assay type: cell-based, Staphylococcus aureus; conditions: 12
Excerpt: as §1

S. aureus 19 = assay: microbe, parasite or virus in culture; assay type: cell-based, Staphylococcus aureus; conditions: 19
Excerpt: as §1

S. aureus 8 = assay: microbe, parasite or virus in culture; assay type: cell-based, Staphylococcus aureus; conditions: 8
Excerpt: as §1

S. aureus 14 = assay: microbe, parasite or virus in culture; assay type: cell-based, Staphylococcus aureus; conditions: 14
Excerpt: as §1

S. aureus 10 = assay: microbe, parasite or virus in culture; assay type: cell-based, Staphylococcus aureus; conditions: 10
Excerpt: as §1

S. aureus 6 = assay: microbe, parasite or virus in culture; assay type: cell-based, Staphylococcus aureus; conditions: 6
Excerpt: as §1

S. aureus 4 = assay: microbe, parasite or virus in culture; assay type: cell-based, Staphylococcus aureus; conditions: 4
Excerpt: as §1

S. aureus 2 = assay: microbe, parasite or virus in culture; assay type: cell-based, Staphylococcus aureus; conditions: 2
Excerpt: as §1

[24] = test system: Enterobacter cloacae SBJ-9395; assay type: cell-based; conditions: SBJ-9395
Excerpt: as §1

[25] = test system: Serratia marcescens SBJ-9047; assay type: cell-based; conditions: SBJ-9047
Excerpt: as §1

[26] = test system: Serratia marcescens SBJ-8283; assay type: cell-based; conditions: SBJ-8283
Excerpt: as §1

SMILES	MIC [1] [µg/mL]	MIC [2] [µg/mL]	MIC (E. coli CVM40146 (vim-1)) [µg/mL]	MIC [3] [µg/mL]	MIC (E. coli CVM 15104 (shv3)) [µg/mL]	MIC [4] [µg/mL]	MIC [5] [µg/mL]	MIC [6] [µg/mL]	MIC [7] [µg/mL]	MIC (E. coli CVM40148 (veb-1)) [µg/mL]	MIC [8] [µg/mL]	MIC [9] [µg/mL]	MIC [10] [µg/mL]	MIC [11] [µg/mL]	MIC [12] [µg/mL]	MIC [13] [µg/mL]	MIC (E. coli CVM 15100 (mir1)) [µg/mL]	MIC [14] [µg/mL]	MIC [15] [µg/mL]	MIC [16] [µg/mL]	further results
CCCCCCCCCCCCC(=O)N[C@H](CCCN)C(=O)N[C@H](C(=O)N[C@@H]1C(=O)N[C@H](CCCN)C(=O)N[C@@H](CO)C(=O)N[C@@H](Cc2ccc(O)cc2)C(=O)N[C@@H](CCCCN)C(=O)N[C@H](CO)C(=O)N[C@@H]([C@@H](C)CC)C(=O)N2CCC[C@H]2C(=O)N[C@@H]([C@@H](C)CC)C(=O)N2CCC[C@H]2C(=O)N[C@@H]([C@@H](C)CC)C(=O)O[C@@H]1C)C(C)C [Compound A L-form] (Tridecanoyl-[dOrn]VT[dOrn]SYK[dS]IPIPI; ester 3-C)	8 (≈ 4.93 µM)	8 (≈ 4.93 µM)	8 (≈ 4.93 µM)	4 (≈ 2.46 µM)	8 (≈ 4.93 µM)	32 (≈ 19.7 µM)	8 (≈ 4.93 µM)	8 (≈ 4.93 µM)	8 (≈ 4.93 µM)	8 (≈ 4.93 µM)	8 (≈ 4.93 µM)	8 (≈ 4.93 µM)	8 (≈ 4.93 µM)	8 (≈ 4.93 µM)	16 (≈ 9.85 µM)	4 (≈ 2.46 µM)	8 (≈ 4.93 µM)	4 (≈ 2.46 µM)	8 (≈ 4.93 µM)	8 (≈ 4.93 µM)	MIC [17]: 8 µg/mL (≈ 4.93 µM); MIC (E. faecalis BAA-2365): 8 µg/mL (≈ 4.93 µM); MIC (E. faecalis ATCC 51575): 8 µg/mL (≈ 4.93 µM); MIC [18]: 8 µg/mL (≈ 4.93 µM); MIC [19]: 64 µg/mL (≈ 39.4 µM); MIC [20]: ≥128 µg/mL; MIC [21]: ≥128 µg/mL; MIC [22]: 8 µg/mL (≈ 4.93 µM); MIC [23]: 4 µg/mL (≈ 2.46 µM)
CCCCCCCCCCCCCCC(=O)N[C@H](CCCN)C(=O)N[C@H](C(=O)N[C@@H]1C(=O)N[C@H](CCCN)C(=O)N[C@@H](CO)C(=O)N[C@@H](Cc2ccc(O)cc2)C(=O)N[C@H](CCCCN)C(=O)N[C@H](CO)C(=O)N[C@@H]([C@@H](C)CC)C(=O)N2CCC[C@H]2C(=O)N[C@@H]([C@@H](C)CC)C(=O)N2CCC[C@H]2C(=O)N[C@@H]([C@@H](C)CC)C(=O)O[C@@H]1C)C(C)C [Compound B] (Pentadecanoyl-[dOrn]VT[dOrn]SY[dK][dS]IPIPI; ester 3-C; N-terminus assumed)	8 (≈ 4.84 µM)	16 (≈ 9.68 µM)	8 (≈ 4.84 µM)	8 (≈ 4.84 µM)	16 (≈ 9.68 µM)	16 (≈ 9.68 µM)	8 (≈ 4.84 µM)	16 (≈ 9.68 µM)	32 (≈ 19.4 µM)	8 (≈ 4.84 µM)	16 (≈ 9.68 µM)	8 (≈ 4.84 µM)	16 (≈ 9.68 µM)	16 (≈ 9.68 µM)	16 (≈ 9.68 µM)	8 (≈ 4.84 µM)	16 (≈ 9.68 µM)	4 (≈ 2.42 µM)	16 (≈ 9.68 µM)	8 (≈ 4.84 µM)	MIC [17]: 8 µg/mL (≈ 4.84 µM); MIC (S. aureus 12): 4 µg/mL (≈ 2.42 µM); MIC (S. aureus 19): 4 µg/mL (≈ 2.42 µM); MIC (S. aureus 8): 4 µg/mL (≈ 2.42 µM); MIC (S. aureus 14): 4 µg/mL (≈ 2.42 µM); MIC (S. aureus 10): 4 µg/mL (≈ 2.42 µM); MIC (S. aureus 6): 8 µg/mL (≈ 4.84 µM); MIC (S. aureus 4): 4 µg/mL (≈ 2.42 µM); MIC (S. aureus 2): 4 µg/mL (≈ 2.42 µM); MIC (E. faecalis BAA-2365): 4 µg/mL (≈ 2.42 µM); MIC (E. faecalis ATCC 51575): 8 µg/mL (≈ 4.84 µM); MIC [18]: 8 µg/mL (≈ 4.84 µM); MIC [19]: 64 µg/mL (≈ 38.7 µM); MIC [20]: ≥128 µg/mL; MIC [21]: ≥128 µg/mL; MIC [24]: 16 µg/mL (≈ 9.68 µM); MIC [22]: 16 µg/mL (≈ 9.68 µM); MIC [25]: ≥128 µg/mL; MIC [23]: 4 µg/mL (≈ 2.42 µM); MIC [26]: 32 µg/mL (≈ 19.4 µM)

— patent US10906940B2, “Antimicrobial peptides, pharmaceutical compositions, and methods of use thereof” (priority 2014, dated 2021)
